This note sets out measurements from ChEMBL document CHEMBL1150084, “Two Benzylated Dihydroflavonols from Cudrania tricuspidata” (1995).

Values after ≈ are worked out from the molar mass of the structure shown.

Type in all cases: functional
In experiment [1] the test system is UO-31. The experiment can be described thus: Cytotoxicity against human UO31 cells after 48 hrs by SRB assay. The following applies: UO-31, 48 h, read-out: ED50 (the source's name). Background: The SRB assay estimates cell density from bound dye.
The subject of experiment [2] is KM12. The experiment can be described thus: Cytotoxicity against human KM12 cells after 48 hrs by SRB assay. The following applies: KM12, 48 h, read-out: ED50 (the source's name).
Experiment [3] deals with LOX IMVI. The experiment can be described thus: Cytotoxicity against human LOXIMVI cells after 48 hrs by SRB assay. The following applies: read-out: ED50 (the source's name).
Experiment [4] deals with MOLT-4F. Kind of experiment: Cytotoxicity against human MOLT4F cells after 48 hrs by SRB assay. The following applies: read-out: ED50 (the source's name).
Experiment [5] in a line: Cytotoxicity against human CRL1579 cells after 48 hrs by SRB assay. The following applies: read-out: ED50 (the source's name).

For the compound `O=C1c2c(cc(O)c(Cc3ccc(O)cc3)c2O)O[C@H](c2ccc(O)cc2)[C@H]1O` [GERICUDRANIN E], the EC50 in experiment [1] came to 7.6 µg/mL (≈ 19.3 µM); in experiment [2] it was 11.9 µg/mL (≈ 30.2 µM); in experiment [3] it was 12.5 µg/mL (≈ 31.7 µM); in experiment [4], 10.7 µg/mL (≈ 27.1 µM); in experiment [5] it was 2.9 µg/mL (≈ 7.35 µM).

For the compound `COc1cccc2c1C(=O)c1c(O)c3c(c(O)c1C2=O)C[C@@](O)(C(=O)CO)C[C@@H]3O[C@H]1C[C@H](N)[C@H](O)[C@H](C)O1` [DOXORUBICIN], the EC50 in experiment [1] stood at 0.3 µg/mL (≈ 0.552 µM); in experiment [2], 0.11 µg/mL (≈ 0.202 µM); in experiment [3], 0.13 µg/mL (≈ 0.239 µM); in experiment [4] it was 0.02 µg/mL (≈ 0.0368 µM); in experiment [5], 0.16 µg/mL (≈ 0.294 µM).

In the case of `O=C1c2c(O)c(Cc3ccc(O)cc3)c(O)c(Cc3ccc(O)cc3)c2O[C@H](c2ccc(O)cc2)[C@H]1O` [GERICUDRANIN D], the EC50 in experiment [1] is 5.2 µg/mL (≈ 10.4 µM); in experiment [2] it was 5 µg/mL (≈ 9.99 µM); in experiment [3], 16.6 µg/mL (≈ 33.2 µM); in experiment [4], 8.9 µg/mL (≈ 17.8 µM); in experiment [5] it was 9.5 µg/mL (≈ 19 µM).
